What was measured:
[1] = system: NCI-H522; experiment: NCI-60 single-dose screen; assay type: cell-based; details: Homo sapiens, single dose 10 µM, '-' = no inhibition, read-out: % Growth Inhibition
Method in brief: (§1)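 Single concentration (10 μM) per compound, assayed by the NCI DTP against its 60-line panel covering leukemia, lung, colon, CNS, melanoma, ovarian, renal, prostate and breast cancers.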

[2] = system: UO-31; experiment: NCI-60 single-dose screen; assay type: cell-based; details: Homo sapiens, single dose 10 µM, '-' = no inhibition, read-out: % Growth Inhibition
Method in brief: as §1

[3] = system: CAKI-1; experiment: NCI-60 single-dose screen; assay type: cell-based; details: Homo sapiens, single dose 10 µM, '-' = no inhibition, read-out: % Growth Inhibition
Method in brief: as §1

[4] = system: HCT-15; experiment: NCI-60 single-dose screen; assay type: cell-based; details: Homo sapiens, single dose 10 µM, '-' = no inhibition, read-out: % Growth Inhibition
Method in brief: as §1

[5] = system: OVCAR-3; experiment: NCI-60 single-dose screen; assay type: cell-based; details: Homo sapiens, single dose 10 µM, '-' = no inhibition, read-out: % Growth Inhibition
Method in brief: as §1

[6] = system: LOX IMVI; experiment: NCI-60 single-dose screen; assay type: cell-based; details: Homo sapiens, single dose 10 µM, '-' = no inhibition, read-out: % Growth Inhibition
Method in brief: as §1

[7] = system: MDA-MB231/ATCC; experiment: NCI-60 single-dose screen; assay type: cell-based; details: Homo sapiens, MDA-MB-231, single dose 10 µM, '-' = no inhibition, read-out: % Growth Inhibition
Method in brief: as §1

[8] = system: SNB-19; experiment: NCI-60 single-dose screen; assay type: cell-based; details: Homo sapiens, single dose 10 µM, '-' = no inhibition, read-out: % Growth Inhibition
Method in brief: as §1

[9] = system: UACC-62; experiment: NCI-60 single-dose screen; assay type: cell-based; details: Homo sapiens, single dose 10 µM, '-' = no inhibition, read-out: % Growth Inhibition
Method in brief: as §1

[10] = system: NCI/ADR-RES; experiment: NCI-60 single-dose screen; assay type: cell-based; details: Homo sapiens, single dose 10 µM, '-' = no inhibition, read-out: % Growth Inhibition
Method in brief: as §1

[11] = system: MOLT-4; experiment: NCI-60 single-dose screen; assay type: cell-based; details: Homo sapiens, single dose 10 µM, '-' = no inhibition, read-out: % Growth Inhibition
Method in brief: as §1

[12] = system: Panc-1; experiment: Antiproliferative assay (MTT); assay type: cell-based; details: Homo sapiens, Panc-1 (pancreatic), read-out: Antiproliferative activity IC50 ± SEM, Panc-1
From the text: (§2) The MTT test was employed for this investigation ([Hisham et al., 2022]; [El-Sherief et al., 2019]; [Ramadan et al., 2020]). Table 2 presents the four cancer cell lines’ median inhibitory concentration (IC50) and GI50 (average IC50) values.
(§3) The MTT test was employed for this investigation ([Hisham et al., 2022]; [El-Sherief et al., 2019]; [Ramadan et al., 2020]). The IC50 values were derived from dose-response tests. The reported data are derived from at least two independent studies, each comprising three replicates per concentration. See Supplementary Material A1 for more details.
(§4) (in 0.1% DMSO) were added (in 200 μL medium to yield a final concentration of 0.1% v/v) to the wells of plates. A single compound was designated with four wells followed by incubation of plates for 96h at 37°C. After incubation, medium was removed completely from the plates followed by addition of MTT (0.4 mg/mL in medium) to each well and subsequent incubation of plates for 3h. MTT (along with the medium) was removed and DMSO (150μL) was added to each well of the culture plates, followed by vertexing and subsequent measurement of absorbance (at 540 nm) using microplate reader. The data are shown as percentage inhibition of proliferation in comparison with controls containing 0.1% DMSO.
(§5) 4.2.1.2. Assay for antiproliferative effect […]
(§6) (10%) and 1 µg/mL each of aprotinin, leupeptin and pepstatin for 120 min. The purification was performed either at 4 °C or on ice. To record autophosphorylation level, EGFR kinase assay was carried out on the basis of DELFIA/Time-Resolved Fluorometry. The compounds were first
(§7) (1 picture or pasted object on this page, not shown here)

[13] = system: A-549; experiment: Antiproliferative assay (MTT); assay type: cell-based; details: Homo sapiens, A549, A-549 (lung), read-out: Antiproliferative activity IC50 ± SEM, A-549
From the text: as §2, §3, §4, §5, §6, §7

[14] = system: HT-29; experiment: Antiproliferative assay (MTT); assay type: cell-based; details: Homo sapiens, HT-29 (colon), read-out: Antiproliferative activity IC50 ± SEM, HT-29
From the text: as §2, §3, §4, §5, §6, §7

[15] = system: MCF-7; experiment: Antiproliferative assay (MTT); assay type: cell-based; details: Homo sapiens, MCF7, MCF-7 (breast), read-out: Antiproliferative activity IC50 ± SEM, MCF-7
From the text: as §2, §3, §4, §5, §6, §7

Row | SMILES | inhibition at 10 µM [1] | inhibition at 10 µM [2] | inhibition at 10 µM [3] | inhibition at 10 µM [4] | inhibition at 10 µM [5] | inhibition at 10 µM [6] | inhibition at 10 µM [7] | inhibition at 10 µM [8] | inhibition at 10 µM [9] | inhibition at 10 µM [10] | inhibition at 10 µM [11] | IC50 [12] | IC50 [13] | IC50 [14] | IC50 [15] | melting point
1 | COc1ccc(-c2cc(-c3ccc(Cl)cc3)nc(SC)n2)cc1 [Compound 9, 4-(4-Chlorophenyl)-6-(4-methoxyphenyl)-2-(methylthio)pyrimidine] | 16% | 18.1% | 28.8% | 15% | < 0% | 12.2% | 20.4% | 4.85% | 26% | 9.84% | 11.7% | 62 ± 6 nM | 60 ± 5 nM | 62 ± 6 nM | 65 ± 6 nM | 220 to 221 °C
2 | CCSc1nc(-c2ccc(Cl)cc2)cc(-c2ccc(OC)cc2)n1 [Compound 10, 4-(4-Chlorophenyl)-2-(ethylthio)-6-(4-methoxyphenyl)pyrimidine] | 8.82% | 10.5% | 13.3% | 14.4% | < 0% | < 0% | < 0% | 0.21% | < 0% | 1.42% | 2.95% | 76 ± 7 nM | 75 ± 7 nM | 74 ± 7 nM | 79 ± 7 nM | 230 to 231 °C
3 | CCCSc1nc(-c2ccc(Cl)cc2)cc(-c2ccc(OC)cc2)n1 [Compound 11, 4-(4-Chlorophenyl)-6-(4-methoxyphenyl)-2-(propylthio)pyrimidine] | 9.17% | 9.15% | 7.98% | 7.25% | < 0% | < 0% | < 0% | 1.03% | 18.1% | < 0% | 2.06% | 54 ± 5 nM | 52 ± 5 nM | 53 ± 5 nM | 55 ± 5 nM | 228 to 230 °C
4 | COc1ccc(-c2cc(-c3ccc(Cl)cc3)nc(SC(C)C)n2)cc1 [Compound 12, 4-(4-Chlorophenyl)-2-(isopropylthio)-6-(4-methoxyphenyl)pyrimidine] | 21.6% | 15.7% | 14.1% | 38.7% | < 0% | 13.6% | 4.87% | 1.49% | 19.1% | 11.2% | 29.9% | 36 ± 3 nM | 35 ± 3 nM | 36 ± 3 nM | 37 ± 3 nM | 198 to 201 °C
5 | C=CCSc1nc(-c2ccc(Cl)cc2)cc(-c2ccc(OC)cc2)n1 [Compound 13, 2-(Allylthio)-4-(4-chlorophenyl)-6-(4-methoxyphenyl)pyrimidine] | 10.2% | 18.9% | 14.8% | 7.93% | < 0% | 4.72% | < 0% | 6.79% | 26.2% | 6.28% | 14.3% | 66 ± 6 nM | 64 ± 6 nM | 64 ± 6 nM | 68 ± 6 nM | 245 to 247 °C
6 | COc1ccc(-c2cc(-c3ccc(Cl)cc3)nc(SCc3ccccc3)n2)cc1 [Compound 14, 2-(Benzylthio)-4-(4-chlorophenyl)-6-(4-methoxyphenyl)pyrimidine] | < 0% | < 0% | 2.18% | 4.95% | 6.22% | 3.14% | < 0% | < 0% | < 0% | < 0% | 4.54% | 29 ± 2 nM | 28 ± 2 nM | 28 ± 2 nM | 30 ± 2 nM | 288 to 290 °C

From article PMC11576293, “New series of 4,6-diaryl pyrimidines: facile synthesis and antiproliferative activity as dual EGFR/VEGFR-2 inhibitors” (Frontiers in Chemistry, 2024)
